What was measured:
[1] = test system: SCID mice grafted with human skin infected with Nm 2C4.3; experiment: Outcome of meningococcal infection in SCID mice grafted with human skin (survival, with or without antibiotics); type: in vivo; conditions: 200 mg kg-1 cefotaxime
Procedure: A-D, SCID mice grafted with human skin were infected intravenously with Nm 2C4.3 wild-type strain (5×10^6 bacteria); 2 h after bacterial challenge, mice received recombinant human ANGPTL4 (1 μg, intravenously), cefotaxime (200 mg kg-1, intraperitoneally) alone or in combination with ANGPTL4 or vehicle as a control. 18 h following bacterial challenge, ANGPTL4 (1 μg) and cefotaxime (200 mg kg-1) were re-administered. This experiment was performed twice with n=3 or 4 mice per group, using skin from two different donors. A, A schematic representation of the protocol used in vivo. B, Bacteraemia 4, 18, 48 and 72 h post-infection (mean±s.e.m.). C, Survival curve: * P=0.0275; two-sided log-rank Mantel-Cox survival analysis. D, Thrombosis within the skin grafts at 4 h post-infection was assessed by immunofluorescence analysis and quantified as described in FIG. 8 (error bars show mean±s.e.m.; 40 vessels per mouse were analysed; n=4 mice per group; *** P<0.001; two-tailed Student's t-test.
Six-week-old CB17/Icr-Prkdcscid female mice were obtained from Janvier Labs. Human skin tissues were obtained from adult patients undergoing plastic surgery in the Service de Chirurgie Plastique et Reconstructive of the Groupe Hospitalier Saint-Joseph. […] Experimental procedures were performed as previously described in accordance with the guidelines of the Institut National de la Santé et de la Recherche Médicale and conformed to the European ethical legislation (Directive 2010/63/EU). The experimental protocol was approved by the Animal Experimentation Ethics Committee of the Université Paris Descartes (consent forms CEEA34.O.J.L.039.12 and 2018012515596498). […] A skin flap was created and a full thickness human skin graft was placed onto the wound bed. The transplants were held in place with 6-0 non-absorbable monofilament suture materials, and the flap was then sutured above the transplant. Grafted mice were infected 4-6 weeks after human skin transplantation. N. meningitidis was grown overnight at 37° C. on GCB agar plates prepared without iron and supplemented with 15 μM deferoxamine (Desferal, Novartis). Bacterial colonies were harvested and cultured in RPMI media with 1% BSA medium and 0.06 μM deferoxamine with gentle agitation to reach the exponential phase of growth. Bacteria were then resuspended in physiological saline solution. Mice were infected intravenously with 200 μl (5×10^6 bacteria) of this bacterial suspension. A 10 mg dose of human holotransferrin (R&D Systems) was administered intraperitoneally just before infection. Mice were killed at 4 h after infection. Human skin grafts were carefully collected using a sterile cutter. The tissue was washed in PBS and fixed overnight at 4° C. in 4% paraformaldehyde in phosphate buffer. After washing in phosphate buffer, the specimens were embedded in OCT medium and then frozen at −80° C. Sections of the dermis (7 μm thick) were immobilized on Superfrost Plus microscope slides and subjected to immunofluorescence analysis. Sections were incubated with the primary antibodies for 1 h in PBS/3% BSA then DAPI was added to Alexa-conjugated secondary antibodies for 1 h. After additional washing, coverslips were mounted in glycergel (Dako) and were further analysed using a slide scanner (Lamina, Perkin Elmer). Analysis of the images was performed using ImageJ software (NIH). […]
We then analysed whether ANGPTL4 could provide a beneficial effect when administered with antibiotics.

[2] = test system: HDMECs infected with Nm 2C4.3; experiment: Integrity of HDMEC monolayers infected with N. meningitidis (VE-cadherin at intercellular junctions, immunofluorescence); type: cell-based, human; conditions: 1 μg/mL added 30 min after initiation of Nm infection, 2 h 30
Procedure: FIG. 1. Exogenous ANGPTL4 exerts protective effects on dermal microvascular endothelial cells infected by N. meningitidis. A. HDMECs were infected with Nm 2C4.3 for 30 min and treated with 1 μg/mL of recombinant human ANGPTL4 for 2 h 30. Cells were fixed and stained for cellular actin, VE-cadherin and DAPI and analyzed by fluorescent microscopy. Quantifications of VE-cadherin enrichment at intercellular junctions and of intercellular spaces area were performed on 30 fields with Image J software. Kruskal-Wallis test ** P<0.001; P<0.0001. B. HDMEC were either uninfected or infected with N. meningitidis 2C4.3 for 30 min and treated with 1 μg mL−1 of recombinant human ANGPTL4, its N-terminal portion (nANGPTL4) or its C-terminal portion (cANGPTL4) for 2 h 30. Caspase-3/7 reagent was added to detect apoptosis in real time over 9 h using the IncuCyte® Live-Cell Analysis System
FIG. 2: Vascular protection is conferred by the N-terminal part of ANGPTL4. A, Schematic representation of ANGPTL4 structure. ANGPTL4 contains a N-terminal portion (nANGPTL4, aa 26-164) linked to a C-terminal portion (cANGPTL4, aa 164-406) by a cleavable linker. nANGPTL4 contains a highly conserved lipoprotein lipase (LPL) binding domain (aa 44-55), two cysteines on position 76 and 80 involved in protein oligomerization and a coiled-coil domain (aa 100-143). The C-terminal portion encodes a fibrinogen-like domain. B, HDMECs were infected with Nm 2C4.3 for 30 min and treated with 1 μg/mL of recombinant human ANGPTL4, nANGPTL4 or cANGPTL4 for 2 h 30. Cells were fixed and stained for cellular actin, VE-cadherin and DAPI and analyzed by fluorescent microscopy. B. Quantifications of VE-cadherin enrichment at intercellular junctions and of intercellular spaces area were performed on 30 fields with Image J software. Kruskal-Wallis test ** P<0.001, *** P<0.0001 of four independent experiments performed in triplicate.
FIG. 3: Vascular protection is conferred by a novel binding motif (aa 66-80) present in the N-terminal part of ANGPTL4. A, the indicated peptides were derived from nANGPTL4. B, HDMECs were infected with Nm 2C4.3 for 30 min and treated with 1 μg/mL of each peptides. Quantifications of VE-cadherin enrichment at intercellular junctions was performed on 30 fields with Image J software.
FIG. 4: Vascular protection is conferred by interaction of nANGPTL4 with Syndecan-4. A, HDMECs were infected with Nm 2C4.3 for 30 min and treated with 1 μg/mL of recombinant human ANGPTL4, nANGPTL4 or cANGPTL4 in the absence or in the presence of anti-SDC4 antibody for 2 h 30. Cells were fixed and stained for cellular actin, VE-cadherin and DAPI and analysed by fluorescent microscopy. Quantifications of VE-cadherin enrichment at intercellular junctions and of intercellular spaces area were performed on 30 fields with Image J software. Kruskal-Wallis test ** P<0.001, **** P<0.00001, ns1 P=0.2172; ns2 P>0.999 of four independent experiments performed in triplicate. B, HDMECs were transfected with small interfering RNA (siRNA) against SDC4 or non-targeting siRNA controls for 48 h, infected with Nm 2C4.3 for 30 min and treated with 1 μg/mL of recombinant human ANGPTL4, for 2 h 30. Quantifications of VE-cadherin enrichment at intercellular junctions and of intercellular spaces area were performed on 30 fields with Image J software. Kruskal-Wallis test ** P<0.001, *** P<0.0001, of two independent experiments performed in triplicate.
The day of infection, a suspension of the bacteria from an overnight culture on GCB agar plate was adjusted to OD600=0.05 and incubated for 2 h at 37° C. in a pre-warmed cell culture medium. Cells were infected with bacteria at a multiplicity of infection (MOI) of 100 bacteria per cell (OD=0.1) for 30 minutes, washed twice to remove non-adherent bacteria and infection was allowed to proceed for various periods of time. Cells were then washed and fixed in 4% paraformaldehyde for immunofluorescence analysis. […]

[3] = test system: Balb/c mice challenged with LPS; experiment: LPS-induced endotoxemia (sepsis) in mice; type: in vivo; conditions: LPS 5 mg kg-1 i.p.; 2 μg/mouse i.v.
Procedure: FIG. 9: ANGPTL4 protects against LPS-induced endotoxemia by preventing vascular dysfunction and organ failure. A-B, Balb/c mice received LPS (5 mg kg-1, i.p.); 30 min after LPS challenge, mice received recombinant human ANGPTL4 (2 μg, intravenously), or vehicle as a control. A, A schematic representation of the protocol used. B, Survival curve (n=16 mice per group): **** P<0.0001; two-sided log-rank Mantel-Cox survival analysis. C,D, Balb/c mice received LPS (5 mg kg-1, i.p.); 30 min after LPS challenge, mice received nANGPTL4 (2 μg, intravenously), or vehicle as a control. C, A schematic representation of the protocol used. D, Survival curve (n=6 mice per group): ** P=0.0033; two-sided log-rank Mantel-Cox survival analysis. E, F, Balb/c mice received LPS (5 mg kg-1, i.p.); 30 min after LPS challenge, mice received Peptide 1 (2 μg, intravenously), or vehicle as a control. E, A schematic representation of the protocol used. F, Survival curve (n=6 mice per group): * P=0.0163; two-sided log-rank Mantel-Cox survival analysis. G, Balb/c mice received LPS (5 mg kg-1. i.p.): 30 min after LPS challenge, mice received recombinant human peptide P9 (2 μg. intravenously). or vehicle as a control. Survival curves (n=6 mice per group). *** P<0.001: two-sided log-rank Mantel-Cox survival analysis. H. Balb/c mice received LPS (4 mg kg-1. i.p.) together with anti-ANGPTL4 blocking antibody (10 μg kg-1. i.v) or vehicle as a control. 18 h after LPS challenge. mice were perfused with Evans blue for 1 h. were killed and brain were extracted. Quantification analysis of Evans blue extravasation (n=4 mice per group). Bars and error bars show the mean±s.e.m., respectively, from two independent experiments: *** P<0.001: NS, not significant (P>0.05) one-way ANOVA Tukey's multiple comparison test.
Female BALB/c mice, obtained from Janvier Labs, 9-10 weeks of age, were administered LPS at 5 mg/kg intraperitoneally and survival was monitored for 72 h (n=12 per group). BALB/c mice were randomly divided into 2 groups: LPS and LPS+Angptl4. Angptl4 (2 μg/mice) or vehicle (physiological saline solution) was administered intravenously 30 min after LPS challenge. In some experiments, blood serum, kidney and lung were collected at 18 h post-LPS challenge. Kidney and lungs were fixed in 4% PFA, embedded in paraffin, and 5-μm sections were cut from each block and stained with H&E. The stained sections were observed and acquired using a slide scanner (Lamina, Perkin Elmer). Analysis of the images was performed using ImageJ software (NIH).
Since severe endothelial dysfunction, leading to dysregulation of hemostasis and vascular dysfunction, is central to the progression to organ failure during sepsis, we analysed whether ANGPTL4 could play a protective role in sepsis, using a lipopolysaccharide (LPS)-induced endotoxemia (FIG. 9A). After LPS-challenge (5 mg kg-1, i.p.), all mice died within two days (FIG. 9B).

Molecule | bactericidal effect (bacteraemia) [1] | mice survival [1] | thrombosis at 4 h post-infection [1] | protective effect on monolayer integrity (adherens junctions, cell detachment) of infected HDMECs [2] | sepsis-associated mortality / survival rate [3]
CO/N=C(\C(=O)N[C@@H]1C(=O)N2C(C(=O)O)=C(COC(C)=O)CS[C@H]12)c1csc(N)n1 [cefotaxime] | strong bactericidal effect | associated with mice survival | did not prevent the triggering of thrombosis |  | 
LSALERRLSACGSAC (Peptide P9) |  |  |  | completely inhibited infection-induced damages | reduced sepsis-associated mortality rate as efficiently as the full-length protein
SALERRLSACGS (Peptide P10) |  |  |  | no effect | did not significantly increased the survival rate
WDEMNVLAHGLLQLGQGLREHAERTRSQLSALERRLSACGSACQGT (Peptide P1) |  |  |  | sufficient to prevent loss of adherens junctions and cell detachment induced by infection as efficiently as the full-length protein | reduced sepsis-associated mortality rate as efficiently as the full-length protein

Source: patent publication US20250163116A1, “NEW METHOD TO TREAT INFECTIOUS DISEASES” (INSERM (INSTITUT NATIONAL DE LA SANTÉ ET DE LA RECHERCHE …, priority 2022, published 2025)
